According to US7371555B2, “Polypeptides having α-H-α-amino acid amide racemase activity and nucleic acids encoding the same” (DSM IP Assets B.V., priority 2002, dated 2008):

Experiments:
[1] = tested on: E. coli DH10B/pOA(1)PLV49B10 cells containing the α-H-α-amino acid amide racemase gene from Ochrobactrum anthropi IA; assay: Racemase activity test with DL-leucine amide and whole E. coli cells (Example 6); type: cell-based; conditions: Strain A
Experimental: To determine the activity of E. coli/pOA(1)PLV49B10 and the E. coli control, the above-mentioned cell pellets were thawed and resuspended to a total volume of 1 ml with 50 mM HEPES-NaOH buffer, pH 7.7. Then, reaction mixtures of 10 ml each were prepared containing 50 mM HEPES-NaOH buffer (pH 7.7), 10 μM pyridoxal-5-phosphate (PLP), 2.5 wt % of D-leucine amide, if applicable 20 mM of EDTA to suppress the E. coli amidase activity, and 0.5 ml of the E. coli/pOA(1)PLV49B10 and E. coli DH10B/pZErO-GFPuv-wrong-orientation cell suspensions or water (for chemical blanks). Reactions were started by the addition of the cells. Reaction mixtures were incubated at 30° C. and 175 rpm. Directly after addition of the cells (t=0 hours) and after 27 and 43 hours samples were taken in which the reaction was stopped by removal of the cells via centrifugation followed by 0.22 μM filtration. Finally, the filtered samples were stored at −20° C. until analysis by chiral HPLC as described below: • column: Sumichiral OA5000 from Sumika (150×4.6 mm I.D., 5μ)+guard column • eluent: 85 v/v % 2 mM CuSO4+15 v/v % methanol • flow: 1.0 ml/min. • column temp.: 40° C. • inj. volume: 5 μl • detection: fluorescence detection after post-column reaction with o-phthalaldehyde and 2-mercaptoethanol (wavelength ex=338 nm and em>420 nm)
The E. coli DH10B/pOA(1)PLV49B10 and E. coli DH10B/pZErO-GFPuv-wrong-orientation cell suspensions from Example 5 (Preparation of the cells) were used. To determine their activity towards racemic DL-leucine amide, identical reaction mixtures were prepared as in Example 5, except that 2.5 wt % of DL-leucine amide was used, EDTA was omitted in all reactions, and the reactions were started with […] of the cell suspensions. Samples were taken directly after the start of the reactions (t=0 hours) and after 8 and 24 hours.

[2] = tested on: CFE from E. coli DH10B/pOa(1)PLV49B10 containing the α-H-α-amino acid amide racemase from O. anthropi IA; assay: Racemase activity test with DL-2-aminobutyric acid amide and CFE from E. coli DH10B/pOa(1)PLV49B10 (Example 10); type: biochemical, Ochrobactrum anthropi IA; conditions: Strain A; incubation time 21.5 h; conversion to the L-acid
Experimental: Also in this case, E. coli TOP10/pBAD/Myc-HisC was treated in exactly the same way to serve as negative control.
To determine the activity of the CFE from E. coli DH10B/pOa(1)PLV49B10 and E. coli TOP10/pBAD/Myc-HisC, reaction mixtures of 10 ml each were prepared containing 50 mM HEPES-NaOH, pH 8.0, 20 μM pyridoxal-5-phosphate, 0.4 mg/ml BSA, 1 mM dithiothreitol, and 75 mM of DL-2-aminobutyric acid amide. Reactions were started by the addition of 1 ml of the thawed CFE of E. coli DH10B/pOa(1)PLV49B10 or E. coli TOP10/pBAD/Myc-HisC (blank) and were incubated at 37° C. for 21.5 h. At regular time intervals samples of 1 ml were taken and transferred to vials containing 1 ml of MeOH to stop the reaction. Analysis of these samples to determine the concentrations L- and D-2-aminobutyric acid and L- and D-2-aminobutyric acid amide was done by HPLC according to the following protocol. • column: Sumichiral OA5000 from Sumika (150×4.6 mm I.D., 5μ)+guard column • eluent: 4 mM CuSO4 in water • flow: 1 ml/min. • column temp.: 10° C. • inj. volume: 6 μl • detection: fluorescence detection after post-column reaction with o-phthalaldehyde and 2-mercaptoethanol in 0.4 M borate buffer with addition of EDTA (wavelength ex=338 nm and em>420 nm)

[3] = tested on: lyophilized O. anthropi IA cells; assay: α-H-α-amino acid amide racemase activity of lyophilized O. anthropi IA cells; type: biochemical, Ochrobactrum anthropi IA; conditions: control experiment
Experimental: O. anthropi IA cells were cultivated in Medium A containing DL-α-amino-ε-caprolactam (2 g/l) as sole nitrogen source. After incubation at 28° C. and 200 rpm for three days (OD620 nm=4.7), cells were harvested by centrifugation, washed in 20 mM HEPES-NaOH buffer of pH 7.7 and lyophilized.
The assay mixture consisted of 10 mM HEPES-NaOH buffer (pH 7.7) containing toluene (2,5 v/v %), pyridoxal-5-phosphate (20 μM), D- or L-leucine amide (2.5 m %) and in some cases EDTA (20 mM). Per assay 150 mg of lyophilized cells were used. Chemical blanks (with the assay mixture without the O. anthropi IA cells) were used as a negative control. All reaction mixtures (including the blanks) were incubated for approximately 72 hours at 40° C. before the reaction was stopped by the addition of 9 volumes of 1 M H3PO4. Finally, the reaction mixtures were analyzed by HPLC to determine the concentrations of D- and L-leucine amide and of D- and L-leucine. o-Phthaldehyde in combination with D-3-mercapto-2-methylpropionic acid was used in this HPLC method as a chiral reagent for the enantioseparation of these amino compounds (Duchateau, et al., J. Chromatogr. (1992) 623:237-245).
In a number of reactions EDTA was added to inhibit L- and/or D-specific amidase(s) present in the O. anthropi IA cells.
Without EDTA, amidases convert the substrate and/or product α-H-α-amino acid amides into α-H-α-amino acids thereby preventing direct detection of the other α-H-α-amino acid amide enantiomer as racemization product. […] Formation of L-leucine from D-leucine amide could not be detected in the chemical blank.

**Q.** How did the D-leucine ([1]; incubation time 0 h) turn out when `CC(C)CC(N)C(N)=O` (racemic) [DL-leucine amide] was run?
**A.** Its D-leucine is 0.001 wt %.

**Q.** And the D-leucine amide ([1]; incubation time 0 h)?
**A.** The D-leucine amide was 1.19 wt %.

**Q.** What about the L-leucine ([1]; incubation time 0 h) of the same molecule?
**A.** Its L-leucine is 0.003 wt %.

**Q.** And the L-leucine amide ([1]; incubation time 0 h)?
**A.** Its L-leucine amide is 1.25 wt %.

**Q.** What about the D-leucine ([1]; incubation time 8 h) of the same molecule?
**A.** Its D-leucine is 0.004 wt %.

**Q.** What about the D-leucine amide ([1]; incubation time 8 h) of the same molecule?
**A.** Its D-leucine amide is 1.24 wt %.

**Q.** And the L-leucine ([1]; incubation time 8 h)?
**A.** Its L-leucine is 1.45 wt %.

**Q.** What about the L-leucine amide ([1]; incubation time 8 h) of the same molecule?
**A.** The L-leucine amide was 0.33 wt %.

**Q.** What about the D-leucine ([1]; incubation time 24 h) of the same molecule?
**A.** Its D-leucine is 0.028 wt %.

**Q.** What about the D-leucine amide ([1]; incubation time 24 h) of the same molecule?
**A.** The D-leucine amide was 0.43 wt %.

**Q.** And the L-leucine ([1]; incubation time 24 h)?
**A.** Its L-leucine is 2.25 wt %.

**Q.** What about the L-leucine amide ([1]; incubation time 24 h) of the same molecule?
**A.** The L-leucine amide was 0.14 wt %.

**Q.** For `CC[C@@H](N)C(N)=O` [D-aminobutyric acid amide], which Conversion [2] is on record?
**A.** The Conversion was 85.4%.

**Q.** With `CC(C)C[C@H](N)C(=O)O` [leucine] as the molecule, how does the racemization of leucine [3] read?
**A.** The racemization of leucine was “did not racemize”.
